Data from patent publication US20210259251A1, “[…] PREVENT AND CONTROL FUNGAL PATHOGENS” (priority 2018, published 2021).
Entries after “also recorded” stand apart in the source; their conditions may differ. Where two headings read alike, the source gives them in different places.

Assays:
Hemenoscyphus fraxineus = assay: In vitro antifungal assay (mycelial growth on PDA); conditions: read-out: ED50
Botrytis cinerea = assay: In vitro fungal bioassay, fungitoxic activity; conditions: for fungitoxic activity against Botrytis cinerea (in words): in vitro, dose range between 10 and 1500 μM; for ED95 Botrytis cinerea: effect in 95% of the population, maximal concentration 1500 μM
Fusarium oxysporum = assay: In vitro fungal bioassay, fungitoxic activity; conditions: maximal concentration 1500 μM; for fungitoxic activity against Fusarium oxysporum (in words): in vitro; for ED95 F. oxysporum: Table 2, effect in 95% of the population
Serpula lacrymans = assay: In vitro antifungal assay (mycelial growth on PDA); conditions: read-out: ED50
Septoria tritici = assay: In vitro antifungal assay (mycelial growth on PDA); conditions: Zymoseptoria tritici, read-out: ED50
Colletotrichum dematium = assay: In vitro antifungal assay (mycelial growth on PDA); conditions: read-out: ED50
Phytophthora infestans = assay: microbe, parasite or virus in culture; format: cell-based; conditions: read-out: ED50 P. infestans
Guignardia bidwellii = assay: In vitro fungal bioassay, fungitoxic activity; format: cell-based; conditions: Phyllosticta ampelicida; Table 5; unit from the concentration series of the method; read-out: ED50 G. bidwellii
Fusarium gramineum [1] = assay: Fungitoxic activity of combined isothiocyanates, 48 well plates, synergy (CompuSyn)
Experimental: (§1) Applicants examined fungitoxic activities of combined isothiocyanates in three necrotrophic fungal species, i.e. Alternaria radicina (class: Dothideomycetes; order: Pleosporales; host: carrot), Fusarium gramineum (class: Sordariomycetes; order: Hypocreales; host: cereals) and Plectosphaerella cucumerina (class: Sordariomycetes; order: Glomerellales; host: tomato and cucurbits).
(§2) Fungitoxic activities were tested in 48 well tissue culture plates. […] Synergistic fungitoxic activities was then estimated as in Chou (2006), and the CompuSyn software (www.combosyn.com) was used to determine the Combination Index (CI) for combinations of two molecules and the presence of synergism (CI<1).

Fusarium gramineum [2] = assay: microbe, parasite or virus in culture; format: cell-based; conditions: for EC50: read-out: ED50 F. gramineum
Alternaria radicina = assay: Fungitoxic activity of combined isothiocyanates, 48 well plates, synergy (CompuSyn)
Experimental: as §1, §2

Phytophthora cactorum = assay: microbe, parasite or virus in culture; format: cell-based
[3] = test system: Plectosphaerella cucumerina; assay: Fungitoxic activity of combined isothiocyanates, 48 well plates, synergy (CompuSyn)
Experimental: as §1, §2

[4] = 168 h, read-out: EC50 Molecule 1
[5] = 168 h, read-out: EC50 Molecule 2
[6] = Fusarium, Table 5, unit from the concentration series of the method
[7] = 168 h, read-out: EC50 Molecule 2, Alternaria radicina, second molecule alone, range 10-850 μM, 850 = no fungitoxic activity in the tested range
[8] = read-out: EC50 Molecule 1, Alternaria radicina, first molecule alone, range 10-850 μM, 850 = no fungitoxic activity in the tested range
[9] = Table 3, maximal dosage 1500 μM

Question: How did the EC50 (Hemenoscyphus fraxineus) turn out when `CS(=O)(=O)CCCCCCCN=C=S` [7-methylsulfonyl-heptyl isothiocyanate] was run?
Answer: Its EC50 is 770 µM.

Question: What about the “fungitoxic activity against Botrytis cinerea (in words)” value (Botrytis cinerea) of the same compound?
Answer: The value was “no fungitoxic activity; also recorded: non-active”.

Question: What about the “fungitoxic activity against Fusarium oxysporum (in words)” value (Fusarium oxysporum) of the same compound?
Answer: The value was “non-active”.

Question: What about the EC50 (Serpula lacrymans) of the same compound?
Answer: Its EC50 is 150 µM.

Question: And the EC50 (Septoria tritici)?
Answer: Its EC50 is 350 µM.

Question: What about the EC50 (Colletotrichum dematium) of the same compound?
Answer: The EC50 was 650 µM.

Question: How did the “ED95 Botrytis cinerea” value (Botrytis cinerea; Table 2) turn out when `C[S+]([O-])CCCCCCCCN=C=S` (centres unmarked) [Molecule 8MSOH, 1-Isothiocyanato-8-(methylsulfinyl)-octane] was run?
Answer: The value was less than 1500 µM.

Question: And the “ED95 Botrytis cinerea” value (Botrytis cinerea; Table 4)?
Answer: The value was less than 1500 µM.

Question: And the “fungitoxic activity against Botrytis cinerea (in words)” value (Botrytis cinerea)?
Answer: Its value is “no fungitoxic effect; also recorded: none of these single compounds revealed fungitoxic effect”.

Question: What about the EC50 (Phytophthora infestans) of the same compound?
Answer: The EC50 was 26.4 µM.

Question: What about the “ED95 F. oxysporum” value (Fusarium oxysporum) of the same compound?
Answer: The value was less than 1500 µM.

Question: What about the “fungitoxic activity against Fusarium oxysporum (in words)” value (Fusarium oxysporum) of the same compound?
Answer: Its value is “no fungitoxic effect”.

Question: And the EC50 (Guignardia bidwellii)?
Answer: The EC50 was 30.4 µM.

Question: What about the EC50 (Fusarium gramineum [1]; [4]) of the same compound?
Answer: Its EC50 is 317 µM.

Question: And the EC50 (Fusarium gramineum [1]; [5])?
Answer: Its EC50 is 317 µM.

Question: What about the EC50 (Fusarium gramineum [1]; read-out: EC50 Molecule 1) of the same compound?
Answer: The EC50 was 317 µM.

Question: What about the EC50 (Fusarium gramineum [2]; [6]) of the same compound?
Answer: The EC50 was 292 µM.

Question: Which EC50 (Alternaria radicina; [7]) does the source give for `CS(=O)(=O)CCCCc1cccc(CN=C=S)c1` [Molecule 8ASOOH, 1-(isothiocyanatomethyl)-3-(4-(methylsulfonyl)butyl)benzene] here?
Answer: Its EC50 is greater than 850 µM.

Question: Which EC50 (Fusarium gramineum [1]; [4]) does the source give for `CC[S+]([O-])CCCCCCCCN=C=S` (centres unmarked) [Molecule 8ESOH, 1-(ethylsulfinyl)-8-isothiocyanatooctane] here?
Answer: The EC50 was 533 µM.

Question: And the EC50 (Fusarium gramineum [1]; read-out: EC50 Molecule 1)?
Answer: Its EC50 is 533 µM.

Question: And the EC50 (Alternaria radicina; [7])?
Answer: Its EC50 is 472 µM.

Question: Which results are given for `CS(=O)(=O)CCCCCN=C=S` [Molecule 5MSOOH, 1-Isothiocyanato-5-(methylsulfonyl)-pentane]?
Answer: ED95 Botrytis cinerea (Botrytis cinerea; Table 4): <1500 µM; fungitoxic activity against Botrytis cinerea (in words) (Botrytis cinerea): none of these single compounds revealed fungitoxic effect

Question: Which EC50 (Alternaria radicina; [8]) does the source give for `C[S+]([O-])CCCCc1cccc(CN=C=S)c1` (centres unmarked) [Molecule 8ASOH, 1-(isothiocyanatomethyl)-3-(4-(methylsulfinyl)butyl)benzene] here?
Answer: The EC50 was 723 µM.

Question: With `CS(=O)(=O)CCCCCCCCC#N` [Molecule 8MSOON, 8-(methylsulfonyl)octylnitrile] as the compound, how does the “ED95 Botrytis cinerea” value (Botrytis cinerea; Table 2) read?
Answer: Its value is less than 1500 µM.

Question: What about the “ED95 F. oxysporum” value (Fusarium oxysporum) of the same compound?
Answer: Its value is less than 1500 µM.

Question: Which results are given for `C[S+]([O-])CCCCCN=C=S` (centres unmarked) [Molecule 5MSOH, 1-isothiocyanato-5-(methylsulfinyl)-pentane]?
Answer: ED95 Botrytis cinerea (Botrytis cinerea; Table 4): <1500 µM; fungitoxic activity against Botrytis cinerea (in words) (Botrytis cinerea): none of these single compounds revealed fungitoxic effect

Question: Which EC50 (Fusarium gramineum [1]; [5]) does the source give for `C[S+]([O-])CCCCCCCCCN=C=S` (centres unmarked) [Molecule 9MSOH, 1-Isothiocyanato-9-(methylsulfinyl)-nonane] here?
Answer: The EC50 was 553 µM.

Question: What does the source list for `CS(=O)(=O)CCCCCCCCN=C=S` [Molecule 8MSOOH, 1-Isothiocyanato-8-(methylsulfonyl)-octane]?
Answer: ED95 Botrytis cinerea (Botrytis cinerea; Table 2): <1500 µM; ED95 Botrytis cinerea (Botrytis cinerea; Table 4): <1500 µM; fungitoxic activity against Botrytis cinerea (in words) (Botrytis cinerea): no fungitoxic effect; also recorded: none of these single compounds revealed fungitoxic effect; EC50 (Phytophthora infestans): 350 µM; ED95 F. oxysporum (Fusarium oxysporum): <1500 µM; fungitoxic activity against Fusarium oxysporum (in words) (Fusarium oxysporum): no fungitoxic effect; EC50 (Guignardia bidwellii): 464 µM; EC50 (Fusarium gramineum [1]; [4]): > 850 µM; EC50 (Phytophthora cactorum; Phytophthora cactorum, read-out: ED50 P. cactorum): 628 µM; EC50 (Fusarium gramineum [2]; Fusarium, Table 3, maximal dosage 1500 μM): 464 µM; EC50 (Fusarium gramineum [2]; [6]): 22.2 µM; EC50 ([3]; read-out: EC50 Molecule 1): > 850 µM

Question: Which results are given for `C[S+]([O-])CCCCN=C=S` (centres unmarked) [Molecule 4MSOH, 1-Isothiocyanato-4-(methylsulfinyl)-butane]?
Answer: ED50 P. cactorum (Phytophthora cactorum): <1500 µM; EC50 (Fusarium gramineum [2]; Fusarium): 628 µM

Question: Which results are given for `C[S+]([O-])CCCCCCCN=C=S` (centres unmarked) [Molecule 7MSOH, 1-Isothiocyanato-7-(methylsulfinyl)-heptane]?
Answer: EC50 (Fusarium gramineum [1]; [5]): 586 µM; EC50 (Fusarium gramineum [1]; read-out: EC50 Molecule 2): 586 µM; EC50 (Alternaria radicina; [7]): 537 µM; EC50 [3, 5]: 337 µM

Question: `CCS(=O)(=O)CCCCCCCCN=C=S` [Molecule 8ESOOH, 1-(ethylsulfonyl)-8-isothiocyanatooctane] was tested. Which EC50 (Alternaria radicina; [7]) did it give?
Answer: Its EC50 is greater than 850 µM.

Question: With `C[S+]([O-])CCCCC/C=C/CN=C=S` (centres unmarked) [Molecule 8CSOH, (E)-1-isothiocyanato-8-(methylsulfinyl)oct-2-ene] as the compound, how does the EC50 (Fusarium gramineum [1]; [4]) read?
Answer: Its EC50 is greater than 850 µM.

Question: What about the EC50 (Fusarium gramineum [1]; read-out: EC50 Molecule 1) of the same compound?
Answer: The EC50 was greater than 850 µM.

Question: What about the EC50 (Alternaria radicina; [8]) of the same compound?
Answer: The EC50 was 472 µM.

Question: What about the EC50 (Alternaria radicina; read-out: EC50 Molecule 1, first molecule alone, range 10-850 μM, 850 = no fungitoxic activity in the tested range) of the same compound?
Answer: The EC50 was 704 µM.

Question: What about the EC50 ([3]; read-out: EC50 Molecule 1) of the same compound?
Answer: Its EC50 is 273 µM.

Question: Which results are given for `CS(=O)(=O)CCCCCCN=C=S` [Molecule 6MSOOH, 1-Isothiocyanato-6-(methylsulfonyl)-hexane]?
Answer: ED50 P. cactorum (Phytophthora cactorum; [9]): <1500 µM; EC50 (Fusarium gramineum [2]; [9]): <1500 µM; fungistatic effect on Fusarium gramineum (in words) (Fusarium gramineum [2]; in the dosage of 1500 μM): not fungistatic

Question: `CS(=O)(=O)CCCCCCCCCN=C=S` [Molecule 9MSOOH, 1-Isothiocyanato-9-(methylsulfonyl)-nonane] was tested. Which EC50 (Fusarium gramineum [1]; [5]) did it give?
Answer: Its EC50 is greater than 850 µM.

Question: Which EC50 (Fusarium gramineum [1]; [5]) does the source give for `CS(=O)(=O)CCCN=C=S` [Molecule 3MSOOH, 1-Isothiocyanato-3-(methylsulfonyl)-propane] here?
Answer: The EC50 was 387 µM.

Question: What about the EC50 (Fusarium gramineum [1]; read-out: EC50 Molecule 2) of the same compound?
Answer: Its EC50 is 387 µM.

Question: What about the EC50 (Alternaria radicina; [5]) of the same compound?
Answer: The EC50 was 469 µM.

Question: And the EC50 [3, 5]?
Answer: Its EC50 is 536 µM.

Question: `C[S+]([O-])CCCN=C=S` (centres unmarked) [Molecule 3MSOH, 1-Isothiocyanato-3-(methylsulfinyl)-propane] was tested. Which EC50 (Fusarium gramineum [1]; [5]) did it give?
Answer: The EC50 was 525 µM.

Question: And the EC50 (Fusarium gramineum [1]; read-out: EC50 Molecule 2)?
Answer: The EC50 was 525 µM.

Question: What about the EC50 (Alternaria radicina; [5]) of the same compound?
Answer: Its EC50 is 786 µM.

Question: What about the EC50 [3, 5] of the same compound?
Answer: The EC50 was 627 µM.
